Measured values from patent US20250197351A1, “C4-CARBOXYLIC ACID-S[…] DERIVATIVES AND METHODS OF USING” (priority 2022, published 2025).
“And” between values parts separate entries of the source, which are not always exact repeats. Equal values may be shown once.

Experiments:
[1] = Mouse pharmacokinetic (PK) study, parent compound and psilocin metabolite in plasma; type: in vivo
Source text: (§1) Briefly, the procedure was as follows. […] 19, 2022.

[2] = Dosing solution concentration by LC-MS (nominal vs measured); type: physicochemical
Procedure: as §1
Pharmacokinetic (PK) evaluations were performed in the same manner as described in Example 1, except compound C(IV) was used in place of compound C(V). […] Thus, only psilocin PK analysis was performed. […] Table 46 summarizes these “measured” concentrations along with corresponding “nominal” concentrations for each dosing solution. Results for psilocin PK following C(IV) administration are found in Tables 47A-47B (0.293 mg/kg IV dose), Tables 48A-48B (0.275 mg/kg oral dose), Tables 49A-49B (0.789 mg/kg oral dose), Tables 50A-50B (2.52 mg/kg oral dose), Table 51 (comparative summary for IV data), Table 52 (comparative summary for oral data), Table 53A (psilocin exposure) and FIGS. 10H (i) and 10H (ii).

[3] = target: T1, 5-HT2A receptor (5-HT2AR) (Mus musculus, UniProt P35363); assay: Drug-induced Head Twitch Response (HTR); type: in vivo; conditions: 1 mg/kg i.p., 15-to-30-minute window post-drug, relative to vehicle
T1 construct: host or cells: C57BL/6 mice, in vivo (neuronal receptor)

5-HT1A receptor = target: T2, 5-HT1A receptor (Homo sapiens, UniProt P08908); assay: cAMP-Glo assay of 5-HT1A receptor modulation, CHO-K1/5-HT1A/Ga15 (+5-HT1A) vs CHO-K1/Ga15 (−5-HT1A) cells; type: cell-based; conditions: +5-HT1A vs −5-HT1A CHO-K1 cells; 4 μM forskolin; increasing ligand concentration
T2 construct: host or cells: CHO-K1 (co-expressing Ga15)
T2 sequence (P08908 1-422): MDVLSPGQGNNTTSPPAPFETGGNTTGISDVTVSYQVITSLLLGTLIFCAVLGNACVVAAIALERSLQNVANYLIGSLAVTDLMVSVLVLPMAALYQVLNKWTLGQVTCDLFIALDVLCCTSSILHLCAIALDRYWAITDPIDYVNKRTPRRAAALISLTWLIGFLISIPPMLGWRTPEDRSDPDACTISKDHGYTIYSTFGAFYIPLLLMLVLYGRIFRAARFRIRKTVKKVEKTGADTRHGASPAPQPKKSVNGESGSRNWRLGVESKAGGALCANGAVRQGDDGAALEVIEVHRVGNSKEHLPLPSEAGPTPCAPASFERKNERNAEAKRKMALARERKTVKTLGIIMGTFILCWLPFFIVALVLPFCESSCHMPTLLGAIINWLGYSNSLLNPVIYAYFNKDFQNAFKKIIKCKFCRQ

[4] = Metabolic stability / psilocin release in serum; type: in vitro ADME; conditions: 10% human AB serum
Source text: (§2) A fundamental evaluation in drug development is the assessment of absorption, distribution, metabolism, excretion, and pharmacokinetics (ADME/PK) (Eddershaw et al., 2000, Drug Discovery Today 5(9): 409-414). […] Drug stability upon exposure to human liver microsomes and liver S9 cellular fractions is a common in vitro assay to approximate in vivo, liver-based drug metabolism (Richardson et al., 2016 Drug Metabolism Letters 10:83-90). First-pass metabolism is also often approximated in vitro using intestinal microsome and cellular S9 fractions (Hatley et al., 2017, Biopharmaceuticals & Drug Disposition, 38(2):155-160). […] Supernatants were analyzed for the presence of candidate prodrugs (parent molecule) and psilocin (the predicted metabolite) using Orbitrap LC-MS (Thermo Scientific) using previously described methods (Menéndez-Perdomo et al., 2021, J Mass Spectrom, 56: e4683). […] Assay concentrations (M) of both parent ‘prodrug’ molecule and psilocin metabolite, as quantified through LC-MS using routine standard curve procedures, were plotted as functions of assay time (minutes). The metabolism rate (T1/2) was determined from the metabolism curve plot using the one phase decay feature of GraphPad PRISM software (Version 9.2.0). The quantity of parent prodrug at time zero was set as 100%. […]

[5] = Metabolic stability / psilocin release in liver fractions; type: in vitro ADME, human; conditions: HLM and HLS9; 2.5 μM; up to 2 hours
Source text: as §2

[6] = Stability in enzyme-free control buffer; type: in vitro ADME; conditions: 50 mM potassium phosphate buffer pH 7.4
Source text: A fundamental evaluation in drug development is the assessment of absorption, distribution, metabolism, excretion, and pharmacokinetics (ADME/PK) (Eddershaw et al., 2000, Drug Discovery Today 5(9): 409-414). […] Drug stability upon exposure to human liver microsomes and liver S9 cellular fractions is a common in vitro assay to approximate in vivo, liver-based drug metabolism (Richardson et al., 2016 Drug Metabolism Letters 10:83-90). First-pass metabolism is also often approximated in vitro using intestinal microsome and cellular S9 fractions (Hatley et al., 2017, Biopharmaceuticals & Drug Disposition, 38(2):155-160). […] Supernatants were analyzed for the presence of candidate prodrugs (parent molecule) and psilocin (the predicted metabolite) using Orbitrap LC-MS (Thermo Scientific) using previously described methods (Menéndez-Perdomo et al., 2021, J Mass Spectrom, 56: e4683). […] Assay concentrations (M) of both parent ‘prodrug’ molecule and psilocin metabolite, as quantified through LC-MS using routine standard curve procedures, were plotted as functions of assay time (minutes). The metabolism rate (T1/2) was determined from the metabolism curve plot using the one phase decay feature of GraphPad PRISM software (Version 9.2.0). The quantity of parent prodrug at time zero was set as 100%.

T1 sequence (P35363 whole entry): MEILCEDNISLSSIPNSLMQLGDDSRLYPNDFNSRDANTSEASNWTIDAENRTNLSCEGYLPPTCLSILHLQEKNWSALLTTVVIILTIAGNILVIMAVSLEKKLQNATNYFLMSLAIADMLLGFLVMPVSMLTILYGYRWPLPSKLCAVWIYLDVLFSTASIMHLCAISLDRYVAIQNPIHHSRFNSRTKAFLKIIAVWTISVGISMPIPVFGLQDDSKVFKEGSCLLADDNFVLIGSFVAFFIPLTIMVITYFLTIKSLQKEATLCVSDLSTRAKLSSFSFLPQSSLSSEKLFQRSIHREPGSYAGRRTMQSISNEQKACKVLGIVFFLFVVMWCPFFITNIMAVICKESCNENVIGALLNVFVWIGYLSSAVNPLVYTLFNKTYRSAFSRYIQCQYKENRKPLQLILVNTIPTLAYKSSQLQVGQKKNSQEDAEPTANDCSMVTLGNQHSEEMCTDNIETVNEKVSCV

For CN(C)CCc1c[nH]c2cccc(OC(=O)CC3CC3)c12 [C(IV)], the “Plasma concentration of psilocin” value ([1]; 0.275 mg/kg oral C(IV), 4 h, individual mice, LLOQ 0.2 ng/mL) was “BLQ”, the “Plasma concentration of psilocin” value ([1]; 0.275 mg/kg oral C(IV), 6 h, individual mice, LLOQ 0.2 ng/mL) was “BLQ” and the “Plasma concentration of psilocin” value ([1]; 0.275 mg/kg oral C(IV), 8 h, individual mice, LLOQ 0.2 ng/mL) was “BLQ”. For the same compound, the “Plasma concentration of psilocin” value ([1]; 0.275 mg/kg oral C(IV), 24 h, individual mice, LLOQ 0.2 ng/mL) was “No Peak”, the “Plasma concentration of psilocin” value ([1]; 0.293 mg/kg i.v. C(IV), 8 h, individual mice, LLOQ 0.2 ng/mL) was “No Peak and BLQ (2×)” and the “Plasma concentration of psilocin” value ([1]; 0.789 mg/kg oral C(IV), 8 h, individual mice, LLOQ 0.2 ng/mL) was “BLQ”. The “Plasma concentration of psilocin” value ([1]; 0.789 mg/kg oral C(IV), 24 h, individual mice, LLOQ 0.2 ng/mL) was “No Peak”, the “Plasma concentration of psilocin” value ([1]; 2.52 mg/kg oral C(IV), 24 h, individual mice, LLOQ 0.2 ng/mL) was “BLQ and No Peak (2×)” and the “Detection of parent compound in plasma” value ([1]; mouse, any animals at any dose (i.v. and oral)) was “not detectable in any animals at any dose”. For the same compound, the “Stability in dosing solutions” value [2] was “compound instability in dosing solutions”, the “Head Twitch Response (HTR) incidence” value [3] was “Elevated incidences of HTR” and the “5-HT1A receptor modulation (reduction of forskolin-induced cAMP)” value (5-HT1A receptor) was “significant receptor modulation”.

In the case of CN(C)CCc1c[nH]c2cccc(OP(=O)(O)O)c12 [psilocybin, reference compound], the “Metabolic stability and conversion to psilocin in serum” value [4] is reported as “stable in serum with no conversion to psilocin”, the “Detection of parent compound in plasma after i.v. administration” value ([1]; mouse, 1 mg/kg i.v.) is reported as “only detectable in i.v. administered animals” and the “Plasma concentration of parent compound” value ([1]; mouse, 1 mg/kg i.v., 0.25 h, individual animals, BLQ = below 0.5 ng/mL (C(V)), 1 mg/kg) is reported as 3.32 ng/mL and 8.95 ng/mL and 27.2 ng/mL. The “Plasma concentration of parent compound” value ([1]; mouse, 1 mg/kg i.v., 0.5 h, individual animals, BLQ = below 0.5 ng/mL (C(V)), 1 mg/kg) was “No Peak and 2.35 ng/mL and 6.21 ng/mL”, the “Plasma concentration of parent compound” value ([1]; mouse, 1 mg/kg i.v., 1 h, individual animals, 1 mg/kg) was “No Peak” and the “Plasma concentration of parent compound” value ([1]; mouse, 1 mg/kg i.v., 2 h, individual animals) was “No Peak”. The “Plasma concentration of parent compound” value ([1]; mouse, 1 mg/kg i.v., 4 h, individual animals) was “No Peak”, the “Plasma concentration of parent compound” value ([1]; mouse, 1 mg/kg i.v., 6 h, individual animals) was “No Peak” and the “Plasma concentration of parent compound” value ([1]; mouse, 1 mg/kg i.v., 8 h, individual animals, 1 mg/kg) was “No Peak”. For the same compound, the “Detection of parent compound in plasma after oral administration” value ([1]; mouse, orally administered, any dose (1, 3, 10 mg/kg)) was “not detectable”, the “Plasma concentration of psilocin” value ([1]; mouse, prodrug 1 mg/kg p.o. (psilocybin: 1.56 mg/kg), 24 h, individual animals, BLQ = below 0.2 ng/mL) was “BLQ” and the “Plasma concentration of psilocin” value ([1]; mouse, prodrug 3 mg/kg p.o., 24 h, individual animals, BLQ = below 0.2 ng/mL) was “BLQ”. The “Metabolic stability and conversion to psilocin in liver fractions” value [5] was “stable in liver fractions with no conversion to psilocin” and the “Stability in assay buffer” value [6] was “stability of psilocybin was confirmed in assay buffer”.
